Laboratory results published in patent US20240207292A1, “BORONIC ACID COMPOUNDS, COMPOSITIONS AND METHODS” (Trustees of Tufts College, priority 2021, published 2024).
Like-named read-outs stand apart in the source and are kept apart here. Blank lines part the entries; values can stand above or below the compound they belong to.

Columns and labels:
[1] = Solubility in water after lyophilization
[2] = molecular target: recombinant human fibroblast activation protein (FAP) (Homo sapiens (Human), UniProt Q12884); assay: In vitro assay fibroblast activation protein IC50 (Example 21); format: biochemical
recombinant human fibroblast activation protein (FAP), sequence (Q12884 whole entry): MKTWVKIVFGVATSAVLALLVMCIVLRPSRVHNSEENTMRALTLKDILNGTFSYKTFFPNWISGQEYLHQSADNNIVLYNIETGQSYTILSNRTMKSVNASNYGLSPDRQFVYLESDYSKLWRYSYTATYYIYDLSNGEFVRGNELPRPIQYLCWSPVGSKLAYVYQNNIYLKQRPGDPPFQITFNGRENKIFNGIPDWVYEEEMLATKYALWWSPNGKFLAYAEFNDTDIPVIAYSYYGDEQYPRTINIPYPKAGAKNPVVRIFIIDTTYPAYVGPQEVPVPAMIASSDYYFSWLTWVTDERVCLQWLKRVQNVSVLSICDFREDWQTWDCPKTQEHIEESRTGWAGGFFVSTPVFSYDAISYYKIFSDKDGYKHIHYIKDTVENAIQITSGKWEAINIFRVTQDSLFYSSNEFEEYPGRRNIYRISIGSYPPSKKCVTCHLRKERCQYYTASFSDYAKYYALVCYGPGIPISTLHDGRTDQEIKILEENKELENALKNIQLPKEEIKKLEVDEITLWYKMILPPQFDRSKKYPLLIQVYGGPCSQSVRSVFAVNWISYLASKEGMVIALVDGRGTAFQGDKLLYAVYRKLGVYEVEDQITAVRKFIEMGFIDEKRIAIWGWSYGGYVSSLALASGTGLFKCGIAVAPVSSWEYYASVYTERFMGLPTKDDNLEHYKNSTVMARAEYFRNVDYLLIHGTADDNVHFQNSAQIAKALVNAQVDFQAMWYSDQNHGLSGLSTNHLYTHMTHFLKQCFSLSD

[3] = molecular target: recombinant human prolyl oligopeptidase (PREP) (Homo sapiens (Human), UniProt P48147); assay: In vitro assay prolyl oligopeptidase IC50 (Example 21); format: biochemical
recombinant human prolyl oligopeptidase (PREP), sequence (P48147 whole entry): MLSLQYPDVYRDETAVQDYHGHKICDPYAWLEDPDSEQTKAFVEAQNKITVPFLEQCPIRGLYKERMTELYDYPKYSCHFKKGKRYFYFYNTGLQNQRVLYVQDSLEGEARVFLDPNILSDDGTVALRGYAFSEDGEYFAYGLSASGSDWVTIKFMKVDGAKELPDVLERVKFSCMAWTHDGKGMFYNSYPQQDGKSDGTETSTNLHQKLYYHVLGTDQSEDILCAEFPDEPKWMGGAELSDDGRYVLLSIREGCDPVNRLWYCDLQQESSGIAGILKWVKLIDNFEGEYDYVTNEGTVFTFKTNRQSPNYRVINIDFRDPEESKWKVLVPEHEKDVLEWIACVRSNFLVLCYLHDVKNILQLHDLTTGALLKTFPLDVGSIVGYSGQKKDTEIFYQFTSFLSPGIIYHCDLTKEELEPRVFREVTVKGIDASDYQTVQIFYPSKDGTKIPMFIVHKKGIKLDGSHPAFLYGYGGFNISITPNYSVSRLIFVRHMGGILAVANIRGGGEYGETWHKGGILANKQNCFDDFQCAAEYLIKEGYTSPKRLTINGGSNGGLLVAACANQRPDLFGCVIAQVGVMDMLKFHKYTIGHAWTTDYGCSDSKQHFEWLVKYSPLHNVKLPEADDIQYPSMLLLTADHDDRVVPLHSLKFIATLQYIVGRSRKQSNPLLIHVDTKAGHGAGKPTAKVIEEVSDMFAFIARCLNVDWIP

[4] = molecular target: recombinant human dipeptidyl peptidase IV (DPPIV) (Homo sapiens (Human), UniProt P27487); assay: In vitro assay dipeptidyl peptidase IV IC50 (Example 21); format: biochemical
recombinant human dipeptidyl peptidase IV (DPPIV), sequence (P27487 whole entry): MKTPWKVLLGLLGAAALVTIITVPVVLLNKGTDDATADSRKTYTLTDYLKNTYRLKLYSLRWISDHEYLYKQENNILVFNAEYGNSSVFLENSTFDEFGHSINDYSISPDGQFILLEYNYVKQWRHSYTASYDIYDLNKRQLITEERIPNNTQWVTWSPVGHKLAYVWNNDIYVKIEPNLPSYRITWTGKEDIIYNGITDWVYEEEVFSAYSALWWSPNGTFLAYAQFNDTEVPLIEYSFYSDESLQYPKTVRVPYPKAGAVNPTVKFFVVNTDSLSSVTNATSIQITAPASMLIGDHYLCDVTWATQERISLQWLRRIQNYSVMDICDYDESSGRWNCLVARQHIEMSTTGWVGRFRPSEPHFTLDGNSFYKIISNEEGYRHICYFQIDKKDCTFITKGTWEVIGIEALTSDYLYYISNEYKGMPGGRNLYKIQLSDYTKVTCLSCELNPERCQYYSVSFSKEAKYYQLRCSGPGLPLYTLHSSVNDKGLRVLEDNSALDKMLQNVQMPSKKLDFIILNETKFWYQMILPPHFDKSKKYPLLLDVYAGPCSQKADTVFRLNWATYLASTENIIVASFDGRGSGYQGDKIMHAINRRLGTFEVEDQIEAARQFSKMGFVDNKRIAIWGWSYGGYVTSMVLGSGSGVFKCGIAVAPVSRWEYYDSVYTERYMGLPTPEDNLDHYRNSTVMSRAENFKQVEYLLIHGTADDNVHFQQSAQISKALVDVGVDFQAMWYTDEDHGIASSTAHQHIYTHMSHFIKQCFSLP
Experimental: The purpose of this assay is to determine the IC50 of various inhibitors against recombinant human dipeptidyl peptidase IV (DPPIV), fibroblast activation protein (FAP) or prolyl oligopeptidase (PREP).
The assays are conducted in the following steps: • 1 Dissolve the compound in DMSO to a final concentration of 100 mM. From this, prepare a 1 mM stock at pH 7.5 in 50 mM Tris, 140 mM NaCl Buffer (FAP)/pH 7.5 in 25 mM Tris, 250 mM NaCl Buffer/[…]. • 2. Serial dilute (1:10) the 1 mM compound stocks prepared previously into the appropriate assay buffer (FAP: 50 mM Tris, 140 mM NaCl, pH 7.5/PREP: 25 mM Tris, 0.25 M NaCl, pH 7.5/DPPIV: 25 mM Tris, pH 8.0) to one row of a 96-well plate. • 3. […] Dilute the enzymes into their appropriate assay buffers. The final enzyme concentrations should be 0.1, 1.2, and 0.6 nM for DPPIV, FAP and PREP respectively. Add 180 μL to each well needed in columns 2-10. Column 1(A,B,C) should be prepared with 200 μl of appropriate assay buffer as control. Column 1(D,E,F,G,H) should be prepared with 20 μl of appropriate assay buffer and 180 ul enzyme as no inhibitor control. • 5. Add 20 μL of the compound of interest from the dilution plate prepared in step 2 to columns 2-10 of the assay plate where appropriate. Each sample should be tested in triplicate. Allow this to incubate for 10 minutes at room temperature, shaking the plate for the first two minutes. • 6. Add 10 μL of 20× substrate prepared in step 3 to each well and allow this to incubate for 15 minutes at room temperature, shaking the plate for the first two minutes. • 7. Read the fluorescence at λex: 380, λem: 460. (DPcore=[dAla|dSer|Gly]-[boroPro|Pro-nitrile], XXaa=alpha-amino acid)

[5] = Degradation in aqueous solution of pH about 3 during HPLC purification and lyophilization; conditions: during HPLC purification and subsequent lyophilization
[6] = lyophilized powder reconstituted before administration; cited from earlier work
[7] = Stability of bortezomib with excipients in water, propyleneglycol (PG) or butylene glycol (BG) at 1 mg/mL, 50° C.; format: physicochemical
Experimental: In Examples 1-3 below, Tables 1, 2 and 3 summarize the effectiveness of sulfur compounds in stabilizing bortezomib such as against oxidation and decomposition reactions. For each of the following Examples 1-3, the following procedures were used: Samples preparation: 100 mg of the API (active pharmaceutical ingredient) was suspended into 100 mL of water or other ratioed solvents, mixed well by using a vortex mixer and sonicator (with gentle warm if necessary) to make a 1 mg/mL of solution A. 10 mg of each excipient was weighed into avial, and 1 mL of solution A was added, mixed well to give the test solution B (10:1 of excipient/API). Took 100 μL of solution B and diluted into 1 mL with solution A to give the test solution C (1:1 of excipient/API). Took 100 μL of solution C and diluted into 1 mL with solution A to give the test solution D (0.1:1 of excipient/API). For solid powderform of Bortezomib with the excipients, method in US 2005/0282742 A1 was adopted. […]
Aqueous formulations of bortezomib together with a number of sulfur-containing compounds in varying weight ratios were evaluated for stability over time based on purity of Bortezomib in water, propyleneglycol (PG) or butylene glycol (BG) at 1 mg/mL, 50° C.

[8] = physchem; conditions: water

SMILES: C[C@@H](NC(=O)c1ccc(CNC(=O)CN2CCN3CCN4CCN(CC2)CC(=O)[O][Lu]([O]C(=O)C3)[O]C(=O)C4)cc1)C(=O)N1CCC[C@H]1B(O)O [6555LU]
solubility in water [1]: > 50 mg/mL | IC50 [2]: 0.014 µM | IC50 [3]: 3.4 µM | IC50 [4]: > 100 µM | degradation in aqueous solution [5]: did not observe any sign of degradation

decomposition of bortezomib ([7]; in the absence of N-Acetyl-L-methionine): 67%
SMILES: CC(C)C[C@H](NC(=O)[C@H](Cc1ccccc1)NC(=O)c1cnccn1)B(O)O [Bortezomib, reference compound]
time the reconstituted solution is sufficiently stable [6]: up to 8 hours

protection of bortezomib ([7]; with N-Acetyl-L-methionine): essentially complete protection
SMILES: CSCC[C@H](NC(C)=O)C(=O)O [N-Acetyl-L-methionine, N-acetyl-L-methionine]

solubility [8]: > 50 mg/mL | IC50 ([2]; Z-Gly-Pro-AMC, 1.2 nM enzyme): 0.0047 µM | IC50 ([3]; Z-Gly-Pro-AMC, 0.6 nM enzyme): 4.6 µM | IC50 ([4]; Gly-Pro-AMC, 0.1 nM enzyme): > 100 µM | degradation in aqueous solution [5]: did not observe any sign of degradation
SMILES: C[C@@H](NC(=O)[C@H]1CC[C@H](CNC(=O)CN2CCN(CC(=O)O)CCN(CC(=O)O)CCN(CC(=O)O)CC2)CC1)C(=O)N1CCC[C@H]1B(O)O [compound 6952]
